# Target: Glucagon-like peptide 1 receptor (Homo sapiens, UniProt P43220)
# Test: Agonist activity at human GLP-1R expressed in HEK293 cells assessed as accumulation of cAMP preincubated for 30 mins followed by d2-labeled cAMP addition and anti-cAMP cryptate addition measured after 60 mins by HTRF assay
# Format: functional, cell-based
# Glucagon-like peptide 1 receptor, sequence (P43220 whole entry): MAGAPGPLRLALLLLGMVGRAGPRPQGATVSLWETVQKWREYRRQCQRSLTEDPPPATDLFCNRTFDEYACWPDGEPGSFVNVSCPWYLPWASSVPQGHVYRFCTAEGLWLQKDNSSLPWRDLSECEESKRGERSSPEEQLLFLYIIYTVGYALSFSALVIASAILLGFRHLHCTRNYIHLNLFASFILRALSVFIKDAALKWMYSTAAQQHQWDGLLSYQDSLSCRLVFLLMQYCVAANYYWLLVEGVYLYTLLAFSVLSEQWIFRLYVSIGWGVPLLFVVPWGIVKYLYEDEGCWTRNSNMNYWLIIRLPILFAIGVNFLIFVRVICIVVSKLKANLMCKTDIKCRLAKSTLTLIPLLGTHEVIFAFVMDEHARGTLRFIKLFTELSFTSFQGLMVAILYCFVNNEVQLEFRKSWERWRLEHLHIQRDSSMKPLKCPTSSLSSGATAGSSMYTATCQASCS
row,Compound,EC50 [nM]
1,O=C(O)c1ccc2nc(CN3CCC(c4cccc(OCc5ccc(C6COC6)cc5F)n4)CC3)n(CC3(F)CCC3)c2c1,39
2,CN1CCC(C(=O)c2ccc(COc3cccc(C4CCN(Cc5nc6ccc(C(=O)O)cc6n5C[C@@H]5CCO5)CC4)n3)c(F)c2)CC1,> 1000
3,O=C(O)c1ccc2nc(CN3CCC(c4cccc(OCc5ccc(C6(O)COC6)cc5)n4)CC3)n(C[C@@H]3CCO3)c2c1,3.08
4,O=C(O)c1ccc2nc(CN3CCC(c4cccc(OCC5CCN(C6COC6)CC5)n4)CC3)n(C[C@@H]3CCO3)c2c1,33.2

# Next, values leading:
row,EC50 [nM],Compound
1,2.8,O=C(O)c1ccc2nc(CN3CCC(c4cccc(OCc5ccc(C6COC6)cc5OCC(F)(F)F)n4)CC3)n(C[C@@H]3CCO3)c2c1
2,0.95,CCC(=O)c1ccc(COc2cccc(C3CCN(Cc4nc5ccc(C(=O)O)cc5n4C[C@@H]4CCO4)CC3)n2)c(F)c1
3,0.54,CC(=O)c1ccc(COc2cccc(C3CCN(Cc4nc5ccc(C(=O)O)cc5n4C[C@@H]4CCO4)CC3)n2)c(F)c1
4,0.08,O=C(O)c1ccc2nc(CN3CCC(c4cccc(OCc5ccc(C6(F)COC6)cc5)n4)CC3)n(C[C@@H]3CCO3)c2c1
5,0.08,N#CCC1(n2c(CC3CCC(c4cccc(OCc5ccc(C6COC6)cc5F)n4)CC3)nc3ccc(C(=O)O)cc32)CC1 (configuration not stated)

# Test system: not listed separately
# Test: Metabolic stability in human liver microsomes assessed as half life at […] incubated upto 45 mins in presence of NADPH by LC-MS/MS analysis
# Format: ADME, Microsome
row,half-life [h],Compound
1,2.56,COc1cc(C2COC2)ccc1COc1cccc(C2CCN(Cc3nc4ccc(C(=O)O)cc4n3C[C@@H]3CCO3)CC2)n1
2,0.717,O=C(O)c1ccc2nc(CN3CCC(c4cccc(OCc5ccc(C6COC6)cn5)n4)CC3)n(C[C@@H]3CCO3)c2c1
3,2.06,O=C(O)c1ccc2nc(CN3CCC(c4cccc(OCc5ccc(C6COC6)cc5Cl)n4)CC3)n(C[C@@H]3CCO3)c2c1

# From ChEMBL document CHEMBL5579877, “Design and Evaluation of 3-Phenyloxetane Derivative Agonists of the Glucagon-Like Peptide-1 Receptor” (J Med Chem, 2024)
